Laboratory results: PubChem BioAssay (NCI)
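Dose response: 5 concentrations. Exposure: 48 h. Format: 96-well plates. Endpoint: linear interpolation; highest concentration if not reached. Definition used: TGI = concentration required for complete inhibition of growth.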

How the values were obtained:
Experiment in all cases: NCI anticancer screen, dose series, 48 h
[1] = system: 786-0 renal
[2] = system: A498 renal
[3] = system: A549 NSCLC
[4] = system: ACHN renal
[5] = system: BT-549 breast
[6] = system: CAKI-1 renal
[7] = system: CCRF-CEM leukemia
[8] = system: COLO 205 colon
[9] = system: DU-145 prostate
[10] = system: EKVX NSCLC
[11] = system: HCC-2998 colon
[12] = system: HCT-116 colon
[13] = system: HCT-15 colon
[14] = system: HL-60(TB) leukemia
[15] = system: HOP-62 NSCLC
[16] = system: HOP-92 NSCLC
[17] = system: HS 578T breast
[18] = system: HT29 colon
[19] = system: IGROV1 ovarian
[20] = system: K-562 leukemia
[21] = system: KM12 colon
[22] = system: LOX IMVI melanoma
[23] = system: M14 melanoma
[24] = system: MALME-3M melanoma
[25] = system: MCF7 breast
[26] = system: MDA-MB-231 breast
[27] = system: MDA-MB-435
[28] = system: MDA-N
[29] = system: MOLT-4 leukemia
[30] = system: NCI-H226 lung
[31] = system: NCI-H23 lung
[32] = system: NCI-H460 lung
[33] = system: NCI-H522 lung
[34] = system: NCI/ADR-RES ovarian
[35] = system: OVCAR-3 ovarian
[36] = system: OVCAR-4 ovarian
[37] = system: OVCAR-5 ovarian
[38] = system: OVCAR-8 ovarian
[39] = system: PC-3 prostate
[40] = system: RPMI-8226 leukemia
[41] = system: RXF 393 renal
[42] = system: SF-268 CNS
[43] = system: SF-295 CNS
[44] = system: SF-539 CNS
[45] = system: SK-MEL-2 melanoma
[46] = system: SK-MEL-28 melanoma
[47] = system: SK-MEL-5 melanoma
[48] = system: SK-OV-3 ovarian
[49] = system: SN12C renal
[50] = system: SNB-19 CNS
[51] = system: SNB-75 CNS
[52] = system: SR leukemia
[53] = system: SW-620 colon
[54] = system: T-47D breast
[55] = system: TK-10 renal
[56] = system: U251 CNS
[57] = system: UACC-257 melanoma
[58] = system: UACC-62 melanoma
[59] = system: UO-31 renal
[60] = system: DLD-1 colon
[61] = system: DMS 114 small cell lung
[62] = system: DMS 273 small cell lung
[63] = system: KM20L2 colon
[64] = system: LXFL 529 NSCLC
[65] = system: M19-MEL melanoma

FC(F)(F)c1cccc(-c2nc3nc(Cl)c(Cl)nc3[nH]2)c1
TGI [1]: > 65.7 µM | TGI [2]: 6.12 µM | TGI [3]: > 40.3 µM | TGI [4]: > 28.2 µM | TGI [5]: 51.8 µM | TGI [6]: 11 µM | TGI [7]: 7.99 µM | TGI [8]: 2.98 µM | TGI [9]: > 100 µM | TGI [10]: 23.2 µM | TGI [11]: 8.04 µM | TGI [12]: 12.1 µM | TGI [13]: > 38.6 µM | TGI [14]: 4.7 µM | TGI [15]: 23.5 µM | TGI [16]: 9.79 µM | TGI [17]: 17.8 µM | TGI [18]: 9.2 µM | TGI [19]: > 100 µM | TGI [20]: 17 µM | TGI [21]: 11 µM | TGI [22]: 13.1 µM | TGI [23]: 30.8 µM | TGI [24]: 12.5 µM | TGI [25]: 8.95 µM | TGI [26]: 8.39 µM | TGI [27]: 13 µM | TGI [28]: 32 µM | TGI [29]: 10.4 µM | TGI [30]: 13.5 µM | TGI [31]: 14.7 µM | TGI [32]: > 30.3 µM | TGI [33]: 4.11 µM | TGI [34]: > 100 µM | TGI [35]: 14.9 µM | TGI [36]: > 41.6 µM | TGI [37]: 16 µM | TGI [38]: > 100 µM | TGI [39]: 9.37 µM | TGI [40]: 3.5 µM | TGI [41]: 27 µM | TGI [42]: > 65.8 µM | TGI [43]: > 100 µM | TGI [44]: > 27.7 µM | TGI [45]: 6.02 µM | TGI [46]: 27.3 µM | TGI [47]: 3.16 µM | TGI [48]: > 90.1 µM | TGI [49]: > 35.9 µM | TGI [50]: > 59.2 µM | TGI [51]: 7.06 µM | TGI [52]: 12.2 µM | TGI [53]: > 42.3 µM | TGI [54]: 12.9 µM | TGI [55]: > 76.1 µM | TGI [56]: 13.6 µM | TGI [57]: > 30.9 µM | TGI [58]: 24.5 µM | TGI [59]: 3.88 µM

NC(=O)CNC(=O)[C@@H]1CC(OCCC(=O)O)CN1C(=O)C1CCCN1C(=O)OCc1ccccc1 (stereo not given in full)
TGI [1]: > 100 µM | TGI [2]: > 100 µM | TGI [3]: > 100 µM | TGI [4]: > 100 µM | TGI [5]: > 100 µM | TGI [7]: > 100 µM | TGI [8]: > 100 µM | TGI [9]: > 100 µM | TGI [10]: > 100 µM | TGI [12]: > 100 µM | TGI [13]: > 100 µM | TGI [14]: > 100 µM | TGI [15]: > 100 µM | TGI [17]: > 100 µM | TGI [18]: > 100 µM | TGI [19]: > 100 µM | TGI [20]: > 100 µM | TGI [21]: > 100 µM | TGI [22]: > 100 µM | TGI [23]: > 100 µM | TGI [24]: > 100 µM | TGI [25]: > 100 µM | TGI [26]: > 100 µM | TGI [27]: > 100 µM | TGI [28]: > 100 µM | TGI [29]: > 100 µM | TGI [30]: > 100 µM | TGI [31]: > 100 µM | TGI [32]: > 100 µM | TGI [33]: > 100 µM | TGI [34]: > 100 µM | TGI [35]: > 100 µM | TGI [36]: > 100 µM | TGI [37]: > 100 µM | TGI [38]: > 100 µM | TGI [39]: > 100 µM | TGI [40]: > 100 µM | TGI [41]: > 100 µM | TGI [42]: > 100 µM | TGI [43]: > 100 µM | TGI [45]: > 100 µM | TGI [46]: > 100 µM | TGI [47]: > 100 µM | TGI [48]: > 100 µM | TGI [49]: > 100 µM | TGI [50]: > 100 µM | TGI [51]: > 100 µM | TGI [52]: > 100 µM | TGI [53]: > 100 µM | TGI [54]: > 100 µM | TGI [55]: > 100 µM | TGI [56]: > 100 µM | TGI [57]: > 100 µM | TGI [58]: > 100 µM | TGI [59]: > 100 µM

CCOC(=O)C(C#N)(Cc1c[nH]c2ccccc12)NC(C)=O (stereo not given)
TGI [4]: > 100 µM | TGI [6]: > 100 µM | TGI [7]: > 100 µM | TGI [8]: > 100 µM | TGI [60]: > 100 µM | TGI [61]: > 100 µM | TGI [62]: > 100 µM | TGI [10]: > 100 µM | TGI [11]: > 100 µM | TGI [12]: > 100 µM | TGI [13]: > 100 µM | TGI [14]: > 100 µM | TGI [15]: > 100 µM | TGI [16]: > 100 µM | TGI [18]: > 100 µM | TGI [19]: > 100 µM | TGI [20]: > 100 µM | TGI [21]: > 100 µM | TGI [63]: > 100 µM | TGI [22]: > 100 µM | TGI [64]: > 100 µM | TGI [23]: > 100 µM | TGI [65]: > 100 µM | TGI [24]: > 100 µM | TGI [29]: > 100 µM | TGI [30]: > 100 µM | TGI [31]: > 100 µM | TGI [32]: > 100 µM | TGI [33]: > 100 µM | TGI [35]: > 100 µM | TGI [36]: > 100 µM | TGI [37]: > 100 µM | TGI [38]: > 100 µM | TGI [40]: > 100 µM | TGI [41]: > 100 µM | TGI [42]: > 100 µM | TGI [43]: > 100 µM | TGI [45]: > 100 µM | TGI [46]: > 100 µM | TGI [47]: > 100 µM | TGI [48]: > 100 µM | TGI [49]: > 100 µM | TGI [51]: > 100 µM | TGI [53]: > 100 µM | TGI [55]: > 100 µM | TGI [56]: > 100 µM | TGI [57]: > 100 µM | TGI [58]: > 100 µM | TGI [59]: > 100 µM

CC1CC[C@@]2(OC1)OC1C[C@H]3[C@@H]4CC=C5CC(OC6OC(CO)C(OC7OC(CO)C(O)C(OC8OCC(O)C(O)C8O)C7OC7OC(CO)C(OC8OC(C)C(OC9OC(C)C(O)C(O)C9O)C(O)C8O)C(O)C7O)C(O)C6O)CCC5(C)[C@H]4CCC3(C)C1[C@@H]2C (stereo not given in full)
TGI [1]: 10.3 µM | TGI [2]: 8.7 µM | TGI [3]: 14.5 µM | TGI [4]: 9.92 µM | TGI [5]: 16.4 µM | TGI [6]: 15.3 µM | TGI [7]: 21.9 µM | TGI [8]: 15.6 µM | TGI [9]: 15.9 µM | TGI [10]: 15.3 µM | TGI [11]: 14.1 µM | TGI [12]: 15.3 µM | TGI [13]: 18.9 µM | TGI [14]: 17.2 µM | TGI [15]: 19 µM | TGI [16]: 14.8 µM | TGI [17]: 17.8 µM | TGI [18]: 15.4 µM | TGI [19]: 16.6 µM | TGI [20]: 19.6 µM | TGI [21]: 17.7 µM | TGI [22]: 17.3 µM | TGI [23]: 10.1 µM | TGI [24]: 20.1 µM | TGI [25]: 26.8 µM | TGI [26]: 11.9 µM | TGI [27]: 18.4 µM | TGI [28]: 16.2 µM | TGI [29]: 24.7 µM | TGI [30]: 18.1 µM | TGI [31]: 16.7 µM | TGI [32]: 20.2 µM | TGI [33]: 16.8 µM | TGI [34]: 17.8 µM | TGI [35]: 20.7 µM | TGI [36]: 12.8 µM | TGI [37]: 14.3 µM | TGI [38]: 19.4 µM | TGI [39]: 11.7 µM | TGI [40]: 25 µM | TGI [41]: 14.2 µM | TGI [42]: 18 µM | TGI [43]: 13.8 µM | TGI [44]: 12.7 µM | TGI [45]: 13.5 µM | TGI [46]: 20.1 µM | TGI [47]: 15.8 µM | TGI [48]: 17.3 µM | TGI [49]: 17 µM | TGI [50]: 11.6 µM | TGI [52]: 50 µM | TGI [53]: 22.9 µM | TGI [54]: 20.2 µM | TGI [55]: 15.8 µM | TGI [56]: 16.3 µM | TGI [57]: 18.1 µM | TGI [58]: 17.7 µM
